One assay concerns mice with EAE. As to the kind of experiment: EAE in C57BL/6J mice (MOG35-55/CFA, pertussis toxin), neurological impairment scoring. The assay is classed as in vivo, mouse. As to the method:
It was tested if the chaperone function of residues 73-92 of HspB5 were capable of reducing the symptoms of experimental allergic encephalomyelist (EAE), by inducing EAE in 9-week old female C57BL/6J by immunized subcutaneously with an emulsion containing 200 μg myelin oligodendrocyte glycoprotein 35-55 (MOG35-55; […] (SEQ ID NO:24)) in saline and an equal volume of complete Freund's adjuvant. Intraperitoneal injection of pertussis toxin at 0 and 48 h post-immunization results in paralysis beginning at day 12.

Assay [1] deals with splenocytes stimulated with anti-CD3/anti-CD28, concanavalin-A or LPS. As to the kind of experiment: Splenocyte cytokine response at 7 d after stroke, Cryab−/− mice. The format is in vivo, mouse. The settings on record: Cryab treated vs PBS treated Cryab−/− mice. As for the experimental part:
The effects of Cryab treatment on splenocytes isolated from PBS treated wild-type and Cryab^−/− mice and Cryab treated Cryab^−/− mice were assessed at 7 d after stroke. Splenocytes from PBS treated Cryab^−/− mice produced more pro-inflammatory IL-2, IL-17 and TNF when stimulated with anti-CD3/anti-CD28 than both PBS-treated wild-type mice and Cryab-treated Cryab^−/− mice splenocytes (FIG. 12e). When stimulated by concanavalin-A, splenocytes from PBS treated Cryab^−/− mice produced more pro-inflammatory IFN-γ, TNF, IL-12p40 and less anti-inflammatory IL-10 compared to the splenocytes from both PBS treated wild-type and Cryab treated Cryab^−/− mice (FIG. 12e). When stimulated with LPS, splenocytes from PBS treated Cryab^−/− mice produced more TNF and less IL-10 compared to the splenocytes from both PBS treated wild-type mice and Cryab treated Cryab^−/− mice (FIG. 12e).

αB-crystallin [HSPB5]: the “clinical paralysis / clinical scores of mice with EAE” value in the assay with mice with EAE (intraperitoneal 10-50 μg every other day starting at the peak of disease) is on record as “significant reduction of clinical paralysis”. Besides, the “symptoms of EAE” value in the assay with mice with EAE (intravenous administration) is on record as “dramatic reduction of symptoms”. Besides, the “symptoms after cessation of the administration” value with mice with EAE (mouse, in vivo) is given as “returned soon after cessation”. Also, the “peripheral inflammatory response (splenocyte cytokines)” value in assay [1] is “modulates the peripheral inflammatory response”.

These data come from US10034915B2, “Small heat shock proteins and active fragments thereof as a therapy for inflammation and ischemia” (The Board of Trustees of the Leland Stanford Junior …, priority 2011, dated 2018).
